“Also recorded” adds a separate entry of the source.
How the values were obtained:
[1] = test system: Atoh1-specific E-box activity; experiment: Dual luciferase reporter assay with Atoh1 E-box associated motif (AtEAM) in HEK cells; assay type: cell-based; settings: HEK cells with or without Atoh1 overexpression, overnight, normalized to Renilla luciferase
Experimental: Dual luciferase assay using a firefly reporter construct with an AtEAM motif in HEK cells. Experiments were done in triplicate, and data are presented as the mean±SEM after normalization to Renilla luciferase
DMSO or CK1 inhibitor D4476 was added to HEK with or without overexpression of Atoh1 for overnight to block the degradation of Atoh1 and therefore downstream Atoh1-specific E-box activity.
To further assess potential roles of CK1 in the control of Atoh1 signaling, we performed dual luciferase reporter assays using a firefly reporter construct with an Atoh1 E-box associated motif (AtEAM) and a Renilla control reporter. AtEAM is a ten […] Atoh1-specific binding motif that represents the site for the activity of Atoh1 in numerous downstream genes (Klisch et al., Proc Natl Acad Sci USA. 2011 February 22; 108(8):3288-93). Inhibition of CK1 by D4476 increased and overexpression of CK1 (specifically CK1δ and/or CK1ε) reduced Atoh1 downstream signaling (FIG. 7A).

organ of Corti explants = experiment: Sox2 lineage tracing of supporting cells in organ of Corti explants (hair cell generation); assay type: cell-based, mice; parameters: double-labeled cells positive for Sox2 lineage and myosin VIIa: dose or concentration left out as unconfirmed
From the text: Hair cell co-labeling with the lineage tag indicates derivation from a Sox2-positive cell (labeled with asterisks) and is thus evidence for newly generated hair cells by transdifferentiation of supporting cells. OHCs, at the bottom of the image, are delineated by a light gray bracket while IHCs, at the top of the image, are delineated by a white bracket. The scale bar is 25 μm.
(B, C) Effect of CK1 inhibition was significant.
Since CK1 inhibition stabilized Atoh1, we assessed its effect on hair cell generation in the cochlea. A Sox2-positive Cre-reporter strain crossed with CAG-TdTomato (Bramhall et al., Stem cell reports 2, 311-322 (2014)) was used to label all supporting cells for lineage tracing to follow supporting cells after CK1 inhibition.

Atoh1 [2] = experiment: Atoh1 protein in newborn organ of Corti explants (Western blotting, densitometry); assay type: cell-based, mice; settings: newborn mouse organ of Corti explants, 10 μM, 72 hours
Experimental: Effect of CK1 inhibition on Atoh1 upregulation in the organ of Corti. Newborn organs of Corti (P1) were treated with the CK1 inhibitor D4476 (10 uM) for 72 hours. Atoh1 were quantified after Western blotting by densitometry and normalized to a loading control (beta-actin).

[3] = test system: Aminoglycoside-exposed organ of Corti explants; experiment: Sox2 lineage tracing in aminoglycoside-exposed organ of Corti explants (hair cell regeneration); assay type: cell-based
Experimental: Images of the basal turn of the lineage-traced organ of Corti damaged by gentamycin and treated with CK1 inhibitor D4476 for 72 hours. […] The scale bar is 25 μm.
Aminoglycoside-exposed organ of Corti explants^3 were treated with 10 μM D4476 for 72 hours and lineage traced.

Atoh1 [4] = experiment: Steady-state abundance of Atoh1 in human 293T cells; assay type: cell-based
Atoh1-Huwe1 binding = experiment: Co-immunoprecipitation of Atoh1-Huwe1 binding and Atoh1 ubiquitylation in HEK cells; assay type: cell-based; settings: HEK cells co-transfected with HA-ubiquitin and FLAG-Atoh1, 4 hours treatment, co-IP
Experimental: HEK cells were co-transfected with HA-ubiquitin and FLAG-Atoh1 plasmids for 48 hours and treated with CK1 inhibitors (PF-670462 or D4476) and/or proteasome inhibitor MG132 (10 μM) for 4 hours. Immunoprecipitation was performed under denaturing conditions with anti-FLAG antibody. Endogenous Huwe1 was detected with an anti-Huwe1 antibody. Atoh1 was detected with anti-FLAG while ubiquitin was detected with anti-HA antibodies.
To explore the effect of CK1 on proteasomal degradation of Atoh1, we performed co-IP experiments.

[5] = organ of Corti explants, 10 μM, 72 hours, vs DMSO

Row | Compound | Atoh1 downstream signaling (Atoh1-specific E-box activity) [1] | double-labeled cells positive for Sox2 lineage and myosin VIIa (organ of Corti explants; mid-base region of neonatal mouse cochlear tissue, 3 days after treatment) | number of reporter-labeled inner hair cells (IHCs) (organ of Corti explants; [5]) | number of reporter-labeled outer hair cells (OHCs) (organ of Corti explants; [5]) | hair cell generation in the organ of Corti (organ of Corti explants; summary statement) | Atoh1 protein in the cochlea based on densitometry (Atoh1 [2]) | Sox2-lineage-tagged hair cells (co-labeled with myosin VIIa and TdTomato) after aminoglycoside damage ([3]; gentamycin-damaged explants, 10 μM, 72 hours) | hair cell regeneration after aminoglycoside damage ([3]; summary statement) | steady-state abundance of Atoh1 (Atoh1 [4]) | Atoh1-Huwe1 binding (Atoh1-Huwe1 binding) | ubiquitylation of Atoh1 (Atoh1-Huwe1 binding)
1 | NC(=O)c1ccc(-c2nc(-c3ccc4c(c3)OCCO4)c(-c3ccccn3)[nH]2)cc1 [D4476, 4-[4-(2,3-Dihydro-1,4-benzodioxin-6-yl)-5-(2-pyridinyl)-1H-imidazol-2-yl]benzamide] | increases Atoh1-specific E-box activity; also recorded: increased | found both in the inner hair cell and outer hair cell area | significantly increased; also recorded: significantly more | significantly increased; also recorded: significantly more | increase hair cell generation | caused stabilization of Atoh1 protein | resulted in an increase of Sox2-lineage-tagged hair cells; also recorded: indicated transdifferentiation of supporting cells | promote hair cell regeneration | increased the steady-state abundance of Atoh1 | diminished Atoh1-Huwe1 binding | diminished
2 | Cl.Cl.Nc1nccc(-c2c(-c3ccc(F)cc3)ncn2C2CCCCC2)n1 [PF-670462, 4-[3-Cyclohexyl-5-(4-fluoro-phenyl)−3H-imidazol-4-yl]-pyrimidin-2-ylamine dihydrochloride] | – | – | – | – | – | – | – | – | increased the steady-state abundance of Atoh1 | diminished Atoh1-Huwe1 binding | diminished
3 | COc1cc(OC)c(C=C2C(=O)Nc3ccccc32)c(OC)c1 [IC-261, 1,3-Dihydro-3-[(2,4,6-trimethoxyphenyl)methylene]-2H-indol-2-one] | – | – | – | – | – | – | – | – | increased the steady-state abundance of Atoh1 | – | –

Reference: patent publication US11185536B2, “Treatment of hearing loss by inhibition of casein kinase 1” (Massachusetts Eye & Ear Infirmary, priority 2015, dated 2021)
